Assay results from patent US20240325550A1, “Therapeutic Compounds for Inhibiting and Reducing the Expression of Cell Surface Proteins” (KIST (Korea Institute of Science and Technology), priority 2023, published 2024).
{DBCO} = dibenzocyclooctyne group for click conjugation; d = 2'-deoxy (DNA); r = 2'-OH (RNA)

What was measured:
[1] = target: T1, EGFR expressed by A549 cells (Homo sapiens, UniProt P00533); assay: Binding of YOYO-1-stained conjugate to EGFR on A549 cells (microscopy); conditions: 200 nM, 30 minutes
T1 construct: EGFR expressed by A549 cells; endogenous in cells; host or cells: A549 cells
Method: (§1) We tested whether the EGFR binding peptide-siRNA conjugate of Example 6 was able to specifically bind EGFR expressed by A549 cells by incubating the EGFR binding peptide-siRNA conjugate of Example 6 with A549 cells. As a control, A549 cells were incubated with the unconjugated anti-EGFR siRNA of Example 6.
A549 cells were treated with 200 nM of either the EGFR-binding peptide-conjugated siRNA of Example 6 or the unconjugated EGFR siRNA of Example 6, each stained with YOYO-1, a nucleic acid staining dye.
After 30 minutes, cells were then fixated with 4% paraformaldehyde (PFA) for 10 minutes, then washed twice with DPBS. Nuclei were then stained using Hoechst 33342 and the cells were examined for YOYO-1 staining.

B16F10 cells = assay: Internalization by B16F10 cells (Cy5.5 fluorescence microscopy); assay type: cell-based; conditions: 18 hours and 24 hours of incubation
Method: B16F10 cells were also incubated with either the PD-L1 binding peptide-siRNA conjugate of Example 1 or the unconjugated Cy5.5-labeled siRNA of Example 1 and similarly fixated after 18 hours and 24 hours of incubation.
(§2) Nuclei were stained using Hoechst 33342 (blue of FIGS. 3 and 4) and the cells were examined for Cy5.5 fluorescence (red of FIGS. 3 and 4).

[2] = target: T2, PD-L1 expressed by CT26.CL25 cells (Mus musculus, UniProt Q9EP73); assay: Binding of Cy5.5-labeled conjugate to PD-L1 on CT26.CL25 cells (fluorescence microscopy); conditions: 200 nM, 30 minutes at 4° C., no antibody pre-treatment
T2 construct: PD-L1 expressed by CT26.CL25 cells; endogenous in cells; host or cells: CT26.CL25 cells
Method: as §1, with “PD-L1” for “EGFR”, “1” for “6”, “CT26.CL25” for “A549”, “CT26.CL25 cells that either had, or had not, been pre-treated with an anti-PD-L1 antibody.” for “A549 cells.”, “anti-PD-L1” for “anti-EGFR”, “1.” for “6.”
Here, 2 ml of CT26.CL25 cells (at 5×10^6 cells/ml) were seeded into each of four dishes. 24 hours after seeding, and one hour before treatment with the conjugate of Example 1, one dish was pre-treated with 1 ml of anti-PD-L1 antibody (InVivoMAb anti-mouse PD-L1, BioXCell Cat. #BE0101) at 1 mg/ml. After incubation with the antibody, the pre-treated cells were incubated with 1 ml (200 nM) of the conjugate of Example 1 for 30 minutes at 4° C. At the same time, a dish that had not been pre-treated was similarly incubated with the conjugate of Example 1, and another dish that had not been pre-treated was similarly incubated with the unconjugated anti-PD-L1 siRNA of Example 1.
Cells were then fixated with 4% paraformaldehyde (PFA) for 10 min, then washed twice with DPBS. Nuclei were then stained using Hoechst 33342 (blue of FIG. 2) and the cells were examined for Cy5.5 fluorescence (red of FIG. 2).

CT26.CL25 cells = assay: Internalization by CT26.CL25 cells (Cy5.5 fluorescence microscopy); assay type: cell-based; conditions: 9 hours, 18 hours and 24 hours of incubation
Method: CT26.CL25 cells were incubated, as described in Example 2, with either the PD-L1 binding peptide-siRNA conjugate of Example 1 or the unconjugated Cy5.5-labeled siRNA of Example 1. After 9 hours, 18 hours, and 24 hours of incubation, cells were then fixated with 4% paraformaldehyde (PFA) for 10 min and washed twice with DPBS.
as §2

T2 sequence (Q9EP73 19-290): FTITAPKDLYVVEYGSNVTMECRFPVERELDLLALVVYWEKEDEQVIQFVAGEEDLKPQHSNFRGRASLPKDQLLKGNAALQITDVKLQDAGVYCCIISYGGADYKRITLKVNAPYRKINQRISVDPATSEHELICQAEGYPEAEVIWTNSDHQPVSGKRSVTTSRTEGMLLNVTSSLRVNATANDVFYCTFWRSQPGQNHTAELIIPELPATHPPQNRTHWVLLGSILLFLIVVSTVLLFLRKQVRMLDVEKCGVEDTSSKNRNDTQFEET

Row | Substance | YOYO-1 staining on cells (binding to EGFR) [1] | Internalization (Cy5.5 fluorescence) (B16F10 cells) | Cy5.5 fluorescence on cells (binding to cell-surface PD-L1) [2] | Cy5.5 fluorescence on cells (binding to cell-surface PD-L1) ([2]; listed as unconjugated Cy5.5-labeled siRNA) | Internalization (Cy5.5 fluorescence) (CT26.CL25 cells)
1 | siRNA: anti-EGFR siRNA: sense AUAGGCAUUGGUGAAUUUAAAGAdCdA-[DBCO] (SEQ ID NO:120), antisense UGUCUUUAAAUUCACCAAUGCCUAUGC (SEQ ID NO:121) (sense AUAGGCAUUGGUGAAUUUAAAGACA; sense: sugars from the 5' end r23 d2, 3' {DBCO}, backbone not given here; antisense: RNA, backbone not given here; sense 3' DBCO clicked to azide EGFR-binding peptide) [reference compound] | no YOYO-1 staining |  |  |  | 
2 | unconjugated Cy5.5-labeled siRNA of Example 1: anti-PD-L1 siRNA: sense GACUCAAGAUGGAACCUGAdTdT-[DBCO] (SEQ ID NO:12), antisense dTdTCUGAGUUCUACCUUGGACU-Cy5.5 (SEQ ID NO:13) (sense GACUCAAGAUGGAACCUGATT; antisense TTCUGAGUUCUACCUUGGACU; dTdT overhangs, DBCO, Cy5.5 label, chemistry not fully specified; one strand is listed 3' to 5') [reference compound] |  | significantly less Cy5.5 fluorescence | very low levels of Cy5.5 fluorescence | little to no Cy5.5 fluorescence | significantly less Cy5.5 fluorescence
